ChEMBL document CHEMBL1133759, “6beta-Acyloxy(nor)tropanes: affinities for antagonist/agonist binding sites on transfected and native muscarinic receptors” (J Med Chem, 2000)

Columns and labels:
[1] = molecular target: Muscarinic acetylcholine receptor; assay type: cell membranes, Rattus norvegicus, Membrane
[2] = molecular target: Muscarinic acetylcholine receptor; test: The binding affinity was measured as inhibition of binding of [3H]- oxotremorine-M to muscarinic acetylcholine receptor in rat cerebral cortical membranes.; assay type: cell membranes, Membrane
[3] = Ratio of affinity versus antagonist [3H]-QNB divided by affinity versus agonist [3H]OXO-M; assay type: functional
[4] = molecular target: T1, Muscarinic acetylcholine receptor M1 (Homo sapiens, UniProt P11229); test: Inhibition of [3H]- oxotremorine-M binding to human Muscarinic acetylcholine receptor M1 expressed in CHO cell membranes; assay type: cell-based
T1 sequence (P11229 whole entry): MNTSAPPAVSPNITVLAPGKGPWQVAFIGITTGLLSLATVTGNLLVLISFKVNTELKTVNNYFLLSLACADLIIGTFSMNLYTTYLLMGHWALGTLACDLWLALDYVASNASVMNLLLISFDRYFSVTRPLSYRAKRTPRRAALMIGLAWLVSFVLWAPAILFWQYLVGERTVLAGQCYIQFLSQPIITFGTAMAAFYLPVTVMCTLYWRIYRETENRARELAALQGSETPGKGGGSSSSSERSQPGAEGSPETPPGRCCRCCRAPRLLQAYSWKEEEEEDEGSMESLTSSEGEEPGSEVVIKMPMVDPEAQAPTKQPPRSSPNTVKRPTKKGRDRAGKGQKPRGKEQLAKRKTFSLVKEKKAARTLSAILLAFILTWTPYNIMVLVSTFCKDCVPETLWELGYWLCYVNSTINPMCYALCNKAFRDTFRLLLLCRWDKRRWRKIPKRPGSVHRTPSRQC

[5] = molecular target: Muscarinic acetylcholine receptor
[6] = molecular target: T2, Muscarinic acetylcholine receptor M4 (Homo sapiens, UniProt P08173); assay type: cell membranes, CHO
T2 sequence (P08173 whole entry): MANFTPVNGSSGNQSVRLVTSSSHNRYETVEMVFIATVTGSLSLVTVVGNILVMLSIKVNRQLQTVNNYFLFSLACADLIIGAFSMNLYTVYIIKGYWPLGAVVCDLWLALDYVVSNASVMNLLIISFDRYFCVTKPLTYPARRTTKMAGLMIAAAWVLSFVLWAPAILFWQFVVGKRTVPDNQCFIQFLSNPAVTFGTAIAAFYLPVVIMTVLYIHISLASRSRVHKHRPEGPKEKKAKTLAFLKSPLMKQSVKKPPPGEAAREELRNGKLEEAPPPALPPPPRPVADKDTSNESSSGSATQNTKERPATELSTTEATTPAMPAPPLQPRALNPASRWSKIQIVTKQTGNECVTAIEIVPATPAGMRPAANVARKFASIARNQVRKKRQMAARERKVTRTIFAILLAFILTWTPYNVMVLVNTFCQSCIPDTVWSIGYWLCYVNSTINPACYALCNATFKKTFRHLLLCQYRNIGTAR

[7] = molecular target: T3, Muscarinic acetylcholine receptor M3 (Homo sapiens, UniProt P20309); assay type: cell membranes, CHO
Target sequence in this assay (P20309 whole entry): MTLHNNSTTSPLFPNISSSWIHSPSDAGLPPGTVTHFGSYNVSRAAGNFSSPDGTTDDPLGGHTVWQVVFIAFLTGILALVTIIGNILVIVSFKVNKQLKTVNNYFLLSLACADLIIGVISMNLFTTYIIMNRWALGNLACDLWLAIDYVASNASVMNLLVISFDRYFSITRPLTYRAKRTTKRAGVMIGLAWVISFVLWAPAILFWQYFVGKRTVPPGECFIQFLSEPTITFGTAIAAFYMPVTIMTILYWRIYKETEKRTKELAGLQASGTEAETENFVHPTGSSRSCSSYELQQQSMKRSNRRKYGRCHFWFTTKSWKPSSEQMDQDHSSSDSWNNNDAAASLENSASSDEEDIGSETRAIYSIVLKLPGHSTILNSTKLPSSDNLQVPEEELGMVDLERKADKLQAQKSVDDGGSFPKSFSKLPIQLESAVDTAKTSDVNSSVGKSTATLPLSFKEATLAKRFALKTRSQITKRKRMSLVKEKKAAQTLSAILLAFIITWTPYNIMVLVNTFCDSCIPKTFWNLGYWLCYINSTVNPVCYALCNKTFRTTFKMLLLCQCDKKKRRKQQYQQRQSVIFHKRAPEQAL

[8] = molecular target: T2, Muscarinic acetylcholine receptor M4; test: Inhibition of [3H]- oxotremorine-M binding to human Muscarinic acetylcholine receptor M4 in CHO cell membranes
[9] = molecular target: T4, Muscarinic acetylcholine receptor M2 (Homo sapiens, UniProt P08172); assay type: cell membranes, CHO
T4 sequence (P08172 whole entry): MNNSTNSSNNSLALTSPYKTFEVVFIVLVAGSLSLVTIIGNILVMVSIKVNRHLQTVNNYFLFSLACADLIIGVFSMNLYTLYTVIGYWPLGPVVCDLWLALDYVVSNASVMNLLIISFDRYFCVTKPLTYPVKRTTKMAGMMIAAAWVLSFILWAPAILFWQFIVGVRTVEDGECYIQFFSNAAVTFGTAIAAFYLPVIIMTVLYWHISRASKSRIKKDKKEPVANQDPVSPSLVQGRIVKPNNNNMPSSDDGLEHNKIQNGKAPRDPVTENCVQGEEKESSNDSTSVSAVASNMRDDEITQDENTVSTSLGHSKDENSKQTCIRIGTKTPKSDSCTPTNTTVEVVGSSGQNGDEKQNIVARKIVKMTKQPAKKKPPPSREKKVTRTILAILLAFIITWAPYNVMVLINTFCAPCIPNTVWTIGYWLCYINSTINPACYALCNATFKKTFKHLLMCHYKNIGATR

[10] = molecular target: Muscarinic acetylcholine receptor; remark: listed apart in the source
Description: Inhibition of [3H]- quinuclidinyl benzilate binding to Muscarinic acetylcholine receptor of rat heart membranes.

[11] = molecular target: T1, Muscarinic acetylcholine receptor M1; test: The binding affinity was measured as inhibition of binding of [3H]- quinuclidinyl benzilate to Muscarinic acetylcholine receptor M1 in membranes of CHO cells; assay type: cell membranes
[12] = molecular target: T4, Muscarinic acetylcholine receptor M2; test: Inhibition of [3H]- oxotremorine-M binding to human Muscarinic acetylcholine receptor M2 expressed in CHO cell membranes
[13] = molecular target: T5, Muscarinic acetylcholine receptor M1 (Homo sapiens) (UniProt P11229); details: CHO
T5 sequence (whole entry): T1 sequence (P11229 whole entry)

[14] = molecular target: T3, Muscarinic acetylcholine receptor M3; test: The binding affinity was measured as inhibition of binding of [3H]- quinuclidinyl benzilate to m3 Muscarinic acetylcholine receptor M3 in membranes of CHO cells; assay type: cell membranes
Target sequence in this assay (P20309 whole entry): as the sequence (P20309 whole entry) above

[15] = molecular target: T5, Muscarinic acetylcholine receptor M1 (Homo sapiens); details: CHO; at 100 µM
Description: Inhibition of binding of [3H]- quinuclidinyl benzilate to Muscarinic acetylcholine receptor M1 in membranes of CHO cells at 100 uM compound concentration

[16] = molecular target: T3, Muscarinic acetylcholine receptor M3; details: CHO; at 100 µM
Target sequence in this assay (P20309 whole entry, looked up): as the sequence (P20309 whole entry) above
Description: Inhibition of binding of [3H]- quinuclidinyl benzilate to Muscarinic acetylcholine receptor M3 in membranes of CHO cells at 100 uM compound concentration

[17] = molecular target: T5, Muscarinic acetylcholine receptor M1 (Homo sapiens); test: Inhibition of binding of [3H]- quinuclidinyl benzilate to Muscarinic acetylcholine receptor M1 in membranes of CHO cells at 100 uM; assay type: cell membranes
[18] = molecular target: Muscarinic acetylcholine receptor; test: The binding affinity was measured as inhibition of binding of [3H]- quinuclidinyl benzilate to Muscarinic acetylcholine receptor; assay type: protein assay

Row | SMILES | Ki [1] [nM] | Ki [2] [nM] | Ratio [3] | Ki [4] [nM] | Ki [6] [nM] | Ki [8] [nM] | Ki [9] [nM] | Ki [12] [nM] | also measured
1 | COc1ccccc1C(=O)OC1CC2CCCC1N2C (stereo not given) | 31000 | 1400 | 22 |  |  |  |  |  | 
2 | COc1ccc(C(=O)OC2CC3CCCC2N3)cc1 (stereo not given) |  | 1700 | > 60 |  |  |  |  |  | 
3 | CN1C2CCCC1C(OC(=O)Nc1ccccc1)C2 (stereo not given) |  | 5100 | > 20 |  |  |  |  |  | 
4 | O=C(OC1CC2CCCC1N2)c1ccccc1 (stereo not given) | 800 | 650 | 1.2 | 120 | 190 | 500 | 300 | 1700 | Ki [5]: 440 nM; Ki [7]: 1300 nM; Ki [10]: 1400 nM; Ki [11]: 2800 nM
5 | CC(=O)OC1CC2CCCC1N2C (stereo not given) | 280000 | 860 | 330 | 2300 |  | 900 |  | 4400 | Ki [5]: 92 nM; inhibition (at 100uM) [13]: 11%; Ki [10]: 17000 nM
6 | O=C(OC1CC2CCCC1N2)c1ccc([N+](=O)[O-])cc1 (stereo not given) | 2200 | 430 | 5.1 | 29 | 48 | 450 | 360 | 310 | Ki [14]: 450 nM; Ki [11]: 780 nM
7 | C[C@@H]1O[C@H](C[N+](C)(C)C)C[C@H]1O [MUSCARINE] |  |  |  |  | 1400 | 23 |  |  | inhibition [15]: 2%; inhibition [16]: 28%
8 | CN1C2CCCC1C(OC(=O)c1ccc([N+](=O)[O-])cc1)C2 (stereo not given) |  | 14000 | > 10 |  |  |  |  |  | 
9 | CN1C2CCCC1C(OC(=O)c1ccccc1)C2 (stereo not given) | 1800 | 860 | 2.1 | 270 | 410 | 910 | 260 | 1300 | Ki [5]: 790 nM; Ki [7]: 3200 nM; Ki [10]: 1400 nM; Ki [11]: 7700 nM
10 | CN1C2CCCC1C(OS(C)(=O)=O)C2 (stereo not given) |  | 2200 | > 100 |  |  |  |  |  | 
11 | CN1C2CCCC1C(OC(=O)C1CCCCC1)C2 (stereo not given) | 8500 | 860 | 13 | 450 | 300 | 700 | 730 | 1600 | Ki [7]: 3000 nM; Ki [11]: 7000 nM
12 | CN1C2CCCC1C(OC(=O)OCC(Cl)(Cl)Cl)C2 (stereo not given) | 23000 | 720 | 31 | 1000 | 42 | 2300 | 820 | 920 | Ki [7]: 6700 nM; Ki [11]: 27000 nM
13 | CCC(=O)OC1CC2CCCC1N2 (stereo not given) | 32000 | 30 | 1100 | 190 | 660 | 85 | 3100 | 190 | inhibition [17]: 36%; Ki [7]: 11400 nM
14 | O=C(Nc1ccccc1)OC1CC2CCCC1N2 (stereo not given) |  | 4300 | > 25 |  |  |  |  |  | 
15 | CN(C)C(=O)OC1CC2CCCC1N2C (stereo not given) |  |  | > 60 |  |  |  |  |  | 
16 | COc1ccc(C(=O)OC2CC3CCCC2N3C)cc1 (stereo not given) |  | 7300 | > 15 |  |  |  |  |  | 
17 | CCC(=O)OC1CC2CCCC1N2C (stereo not given) |  | 1500 | > 70 | 230 | 960 | 1400 | 2400 | 1200 | inhibition [15]: 46%; Ki [7]: 7400 nM
18 | CS(=O)(=O)OC1CC2CCCC1N2 (stereo not given) |  | 2700 | > 100 |  |  |  |  |  | 
19 | O=C1CCCN1CC#CCN1CCCC1 [OXOTREMORINE] | 58000 | 13 | 4500 | 17 | 160 | 1.5 | 660 | 38 | inhibition [15]: 9%; Ki [5]: 6 nM; inhibition [16]: 28%; Ki [10]: 330 nM
20 | COc1ccccc1C(=O)OC1CC2CCCC1N2 (stereo not given) | 53000 | 2800 | 19 |  |  |  |  |  | 
21 | O=C(OC1CC2CCCC1N2)C1CCCCC1 (stereo not given) | 25000 | 1900 | 13 | 970 | 840 | 2200 | 3600 | 9000 | Ki [7]: 7500 nM; Ki [11]: 20000 nM
22 | CCCC(=O)OC1CC2CCCC1N2C (stereo not given) | 34000 | 1200 | 28 |  |  |  |  |  | 
23 | CCCC(=O)OC1CC2CCCC1N2 (stereo not given) | 30000 | 160 | 190 |  |  |  |  |  | 
24 | CN(C)C(=O)OC1CC2CCCC1N2 (stereo not given) |  | 1700 | > 60 |  |  |  |  |  | 
25 | CC(=O)OC1CC2CCCC1N2 (stereo not given) |  | 2 | 11000 | 4.6 |  | 4 |  | 7 | Ki [5]: 0.95 nM; Ki [18]: 22000 nM; Ki [10]: 400 nM
